# Source: US6569878B1, “Substituted 4-amino-thiazol-2-yl compounds as cyclin-dependent kinase inhibitors” (Agouron Pharmaceuticals Inc., priority 1997, dated 2003)
# Biological target: T1, complex of human CDK4 and cyclin D3 (Homo sapiens, UniProt P11802)
# T1 construct: made in house; host or cells: insect cells, co-infected with baculovirus
# Assay: Inhibition of CDK4/cyclin D retinoblastoma kinase activity (D-type cyclin is D3)
# Assay type: biochemical
# Conditions: superscript a: D-type cyclin is D3; apparent Ki; read-out: Ki CDK 4/D
# Experimental: Cyclin-dependent kinase activity was measured by quantifying the enzyme-catalyzed, time-dependent incorporation of radioactive phosphate from [^32P]ATP or [^33P]ATP into a protein substrate. […] Reactions were initiated with enzyme, incubated at 30° C., and terminated after 20 minutes by the addition of ethylenediaminetetraacetic acid (EDTA) to 250 mM. […] Radioactivity was quantified by exposing the dried membranes to a phosphorimager.
# Apparent Ki values were measured by assaying enzyme activity in the presence of different inhibitor compound concentrations and subtracting the background radioactivity measured in the absence of enzyme. The kinetic parameters (kcat, Km for ATP) were measured for each enzyme under the usual assay conditions by determining the dependence of initial rates on ATP concentration. Inhibition data were fit to an equation for competitive inhibition using Kaleidagraph (Synergy Software), or were fit to an equation for competitive tight-binding inhibition using the software KineTic (BioKin, Ltd.).
# Phosphorylated Rb substrate was captured by microfiltration on a nitrocellulose membrane and quantified using a phosphorimager as described above. For measurement of tight-binding inhibitors, the enzyme complex concentration was lowered to 5 nM, and the assay duration was extended to 60 minutes, during which the time-dependence of product formation was linear.
# T1 sequence (P11802 whole entry): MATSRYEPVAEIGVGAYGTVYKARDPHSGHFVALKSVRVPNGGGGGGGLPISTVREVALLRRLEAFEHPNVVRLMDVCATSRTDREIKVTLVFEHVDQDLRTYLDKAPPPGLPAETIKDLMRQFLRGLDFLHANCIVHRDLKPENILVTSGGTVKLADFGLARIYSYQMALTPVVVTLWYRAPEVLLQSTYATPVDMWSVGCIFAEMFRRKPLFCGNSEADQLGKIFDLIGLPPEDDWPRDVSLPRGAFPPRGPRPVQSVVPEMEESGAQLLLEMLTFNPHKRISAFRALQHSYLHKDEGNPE
# T1 sequence (P30281 whole entry partner): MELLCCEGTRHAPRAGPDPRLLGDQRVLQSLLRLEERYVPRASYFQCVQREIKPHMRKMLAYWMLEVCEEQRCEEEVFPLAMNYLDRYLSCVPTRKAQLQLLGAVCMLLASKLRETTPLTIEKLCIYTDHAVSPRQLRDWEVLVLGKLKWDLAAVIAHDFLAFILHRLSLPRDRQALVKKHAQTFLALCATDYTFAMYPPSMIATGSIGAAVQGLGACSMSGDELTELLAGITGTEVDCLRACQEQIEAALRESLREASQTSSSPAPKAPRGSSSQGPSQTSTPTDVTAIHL
row,SMILES,Ki [µM]
1,"Nc1nc(Nc2ccc3c(c2)OCO3)sc1C(=O)c1ccccc1[N+](=O)[O-] [C(11), [4-Amino-2-(benzo[1,3]dioxol-5-yl-amino)-thiazol-5-yl]-(2-nitro-phenyl)-methanone]",0.13
2,"CCN(CC)c1ccc(Nc2nc(N)c(C(=O)c3ccccc3[N+](=O)[O-])s2)cc1 [C(17), [4-Amino-2-(4-diethylamino-phenylamino)-thiazol-5-yl]-(2-nitro-phenyl)-methanone]",0.072
3,"Nc1nc(Nc2ccccc2)sc1C(=O)c1ccc([N+](=O)[O-])cc1 [A(2), (4-Amino-2-phenylamino-thiazol-5-yl)-(4-nitrophenyl)-methanone]",~0.3
4,"Cc1c(C(=O)c2sc(Nc3ccc4nc[nH]c4c3)nc2N)sc2ccc(Cl)cc12 [C(10), [4-Amino-2-(1H-benzoimidazol-6-yl-amino)-thiazol-5-yl]-(5-chloro-3-methyl-benzo[b]thiophen-2-yl)-methanone]",0.68
5,"Nc1nc(Nc2ccc(I)cc2)sc1C(=O)c1ccccc1[N+](=O)[O-] [A(7), [4-Amino-2-(4-iodo-phenylamino)-thiazol-5-yl]-(2-nitro-phenyl)-methanone]",0.31
6,"Nc1nc(Nc2cccnc2)sc1C(=O)c1ccc(Cl)cc1Cl [C(28), [4-Amino-2-(pyridin-3-ylamino)-thiazol-5-yl]-(2,4-dichloro-phenyl)-methanone]",0.24
7,"Nc1nc(Nc2ccc(Sc3ncc(C(F)(F)F)cc3Cl)cc2)sc1C(=O)c1ccccc1[N+](=O)[O-] [C(25), {4-Amino-2-[4-(2-chloro-5-trifluoromethyl-pyridin-2-yl sulfanyl)-phenylamino]-thiazol-5-yl}-(2-nitro-phenyl)-methanone]",1.3
8,"Nc1nc(NC2CCCCC2)sc1C(=O)c1ccccc1[N+](=O)[O-] [C(14), (4-Amino-2-cyclohexylamino-thiazol-5-yl)-(2-nitro-phenyl)-methanone]",0.057
9,"Cc1c(C(=O)c2sc(Nc3ccc(N(C)C)cc3)nc2N)sc2ccccc12 [C(7), [4-Amino-2-((4-dimethylaminophenyl)amino)-thiazol-5-yl]-(3-methyl-benzo[b]thiophen-2-yl)-methanone]",0.51
10,"COc1ccccc1C(=O)c1sc(NCCc2ccc(Cl)cc2)nc1N [C(27), {4-Amino-2-[2-(4-chloro-phenyl)-ethylamino]-thiazol-5-yl}-(2-methoxy-phenyl)-methanone]",1.02
11,Cc1c(C(=O)c2sc(Nc3ccc(N(C)C)cc3)nc2N)sc2ccc(Cl)cc12 [C(9)],0.74
12,"CC(C)c1ccc(Nc2nc(N)c(C(=O)c3ccccc3[N+](=O)[O-])s2)cc1 [C(15), [4-Amino-2-(4-isopropyl-phenylamino)-thiazol-5-yl]-(2-nitro-phenyl)-methanone]",0.057
13,"Nc1nc(Nc2ccc([N+](=O)[O-])cc2)sc1C(=O)c1ccccc1[N+](=O)[O-] [C(13), [4-Amino-2-(4-nitro-phenylamino)-thiazol-5-yl]-(2-nitro-phenyl)-methanone]",0.051
14,"CCN(CC)c1ccc(Nc2nc(N)c(C(=O)c3ccc([N+](=O)[O-])cc3)s2)cc1 [C(18), [4-Amino-2-(4-diethylamino-phenylamino)-thiazol-5-yl]-(4-nitro-phenyl)-methanone]",12.9
15,"Nc1nc(Nc2cccnc2)sc1C(=O)c1ccc2ccccc2c1 [C(30), [4-Amino-2-(pyridin-3-ylamino)-thiazol-5-yl]-naphthalen-2-yl-methanone]",1.4
16,"COCCCNc1nc(N)c(C(=O)c2ccccc2[N+](=O)[O-])s1 [C(23), [4-Amino-2-(3-methoxy-propylamino)-thiazol-5-yl]-(2-nitro-phenyl)-methanone]",0.33
17,"COc1ccccc1C(=O)c1sc(Nc2cccnc2)nc1N [C(29), [4-Amino-2-(pyridin-3-ylamino)-thiazol-5-yl]-(2-methoxy-phenyl)-methanone]",0.357
18,"Nc1nc(Nc2cccnc2)sc1C(=O)c1ccccc1[N+](=O)[O-] [A(11), [4-Amino-2-(pyridin-3-ylamino)-thiazol-5-yl]-(2-nitro-phenyl)-methanone]",0.13
19,"Cc1ccc(Nc2nc(N)c(C(=O)c3ccc(C)cc3C)s2)cc1 [A(14), [4-Amino-2-(p-tolylamino)-thiazol-5-yl]-(2,4-dimethylphenyl)-methanone]",0.18
20,"Nc1nc(NCCc2ccc(Cl)cc2)sc1C(=O)c1ccccc1[N+](=O)[O-] [C(16), {4-Amino-2-[2-(4-chloro-phenyl)-ethylamino]-thiazol-5-yl}-(2-nitro-phenyl)-methanone]",0.17
21,N#Cc1cccc(Nc2nc(N)c(C(=O)c3ccccc3[N+](=O)[O-])s2)c1 [C(22)],0.067
22,"COc1ccc(C(=O)c2sc(Nc3ccc(OCc4ccccc4)cc3)nc2N)cc1 [C(2), [4-Amino-2-(4-benzyloxy-phenylamino)-thiazol-5-yl]-(4-methoxy-phenyl)-methanone]",> 5
23,"COc1ccc(C(=O)c2sc(Nc3ccc(C)cc3)nc2N)c(OC)c1 [A(13), [4-Amino-2-(p-tolylamino)-thiazol-5-yl]-(2,4-dimethoxyphenyl)-methanone]",0.25
24,"COC(=O)c1cccc(Nc2nc(N)c(C(=O)c3ccccc3OC)s2)c1 [C(26), Methyl 3-[4-Amino-5-(2-methoxy-benzoyl)-thiazol-2-ylamino]-benzoate]",0.33

# More lines, now with the values ahead:
row,Ki [µM],SMILES
1,~1.5,CN(C)c1ccc(Nc2nc(N)c(C(=O)c3ccc(F)cc3)s2)cc1 [I(7)]
2,2.5,Nc1nc(NC2CCCCC2)sc1C(=O)c1ccc([N+](=O)[O-])cc1 [I(9)]
3,1.5,Cc1ccc(Nc2nc(N)c(C(=O)c3ccccc3)s2)cc1 [I(23)]
4,1.17,"Nc1nc(Nc2ccc(S(N)(=O)=O)cc2)sc1C(=O)c1ccc(C(=O)O)cc1 [E(2), 4-[4-Amino-2-(4-sulfamoyl-phenylamino)-thiazole-5-carbonyl]-benzoic Acid]"
5,4.3,Nc1nc(NC2CCCCC2)sc1C(=O)c1ccc(F)cc1 [I(8)]
6,> 5,"Nc1ccc(C(=O)c2sc(Nc3ccccc3)nc2N)cc1 [D(2), (4-Amino-phenyl)-(4-amino-2-phenylamino-thiazol-5-yl)-methanone]"
7,0.38,"CN(C)c1ccc(Nc2nc(N)c(C(=O)c3ccccc3N)s2)cc1 [D(3), [4-Amino-2-(4-dimethylamino-phenylamino)-thiazol-5-yl]-(2-amino-phenyl)-methanone]"
8,1.88,COc1cc(C(=O)c2sc(Nc3ccccc3)nc2N)cc(OC)c1OC [I(16)]
9,~0.128,"CC(=O)c1ccc(Nc2nc(N)c(C(=O)c3sccc3C)s2)cc1 [C(44), 1-{4-[4-Amino-5-(3-methyl-thiophene-2-carbonyl)-thiazol-2-ylamino]-phenyl}-ethanone]"
10,0.44,COC(=O)c1cccc(Nc2nc(N)c(C(=O)c3ccc4ccccc4c3)s2)c1 [I(15)]
11,0.094,"COc1ccccc1C(=O)c1sc(Nc2ccc3nc[nH]c3c2)nc1N [C(32), [4-Amino-2-(1H-benzoimidazol-6-ylamino)-thiazol-5-yl]-(2-methoxy-phenyl)-methanone]"
12,< 1,COC(=O)c1cccc(C(=O)c2sc(Nc3cccc([N+](=O)[O-])c3)nc2N)c1 [I(17)]
13,0.8,"Nc1ccc(Nc2nc(N)c(C(=O)c3ccccc3)s2)cc1 [D(4), [4-Amino-2-(4-amino-phenylamino)-thiazol-5-yl]-phenyl-methanone]"
14,2.4,COC(=O)c1cccc(Nc2nc(N)c(C(=O)c3cccc(OC)c3)s2)c1 [I(13)]
15,0.52,Nc1nc(Nc2ccccc2)sc1C(=O)c1ccc(F)cc1 [I(11)]
16,3.84,"COc1ccc(Nc2nc(N)c(C(=O)c3[nH]cnc3C)s2)cc1 [C(40), [4-Amino-2-(4-methoxy-phenylamino)-thiazol-5-yl]-(4-methyl-1H-imidazol-5-yl)-methanone]"
17,3,"Cc1c(C(=O)c2sc(Nc3ccc(N4CCOCC4)cc3)nc2N)ncn1C [C(77), [4-Amino-2-(4-morpholin-4-yl-phenylamino)-thiazol-5-yl]-(1,5-dimethyl-1H-imidazol-4-yl)-methanone]"
18,0.315,"Cn1cccc1C(=O)c1sc(Nc2ccc3nc[nH]c3c2)nc1N [C(43), [4-Amino-2-(1H-benzimidazol-5-ylamino)-thiazol-5-yl]-(1-methyl-1H-pyrrol-2-yl)-methanone]"

# Same assay, conditions: superscript a: D-type cyclin is D3; μM; read-out: Ki CDK 4/D
row,SMILES,Ki [µM]
1,"CCC(Nc1nc(N)c(C(=O)c2ccc([N+](=O)[O-])cc2)s1)C(=O)OC (stereo in doubt) [C(6), Methyl 2(S)-[4-Amino-5-(4-nitro-benzoyl)-thiazol-2-ylamino]-butyrate]",> 10
2,"Nc1nc(Nc2ccc([N+](=O)[O-])cc2)sc1C(=O)c1ccccc1 [A(8), [4-Amino-2-(4-nitro-phenylamino)-thiazol-5-yl]-phenyl-methanone]",> 25

# The remaining lines, values ahead:
row,Ki [µM],SMILES
1,> 25,COc1ccc(C(=O)Nc2nc(N)c(C(=O)c3ccccc3[N+](=O)[O-])s2)cc1 [I(18)]
2,> 30,"COc1ccc(CNc2nc(N)c(C(=O)c3cc(C)sc3C)s2)cc1 [C(68), [4-Amino-2-(4-methoxy-benzylamino)-thiazol-5-yl]-(2,5-dimethylthiophen-3-yl)-methanone]"
3,> 50,COC(=O)c1cccc(Nc2nc(N)c(C(=O)c3ccc(Br)cc3)s2)c1 [I(14)]
4,> 100,Nc1nc(Nc2ccc(S(N)(=O)=O)cc2)sc1C(=O)c1ccc(OC(=O)c2ccccc2)cc1 [C(39)]
5,> 20,COc1ccc(C(=O)c2sc(Nc3ccccc3)nc2N)cc1 [I(10)]
